Results published in ChEMBL document CHEMBL1156872, “Synthesis and discovery of 2,3-dihydro-3,8-diphenylbenzo[1,4]oxazines as a novel class of potent cholesteryl ester transfer protein inhibitors” (Bioorg Med Chem Lett, 2010).

How the values were obtained:
[1] = molecular target: T1, Cholesteryl ester transfer protein (Homo sapiens) (UniProt P11597); assay: Inhibition of human cholesteryl ester transfer protein at 1 uM by scintillation proximity assay
T1 sequence (whole entry): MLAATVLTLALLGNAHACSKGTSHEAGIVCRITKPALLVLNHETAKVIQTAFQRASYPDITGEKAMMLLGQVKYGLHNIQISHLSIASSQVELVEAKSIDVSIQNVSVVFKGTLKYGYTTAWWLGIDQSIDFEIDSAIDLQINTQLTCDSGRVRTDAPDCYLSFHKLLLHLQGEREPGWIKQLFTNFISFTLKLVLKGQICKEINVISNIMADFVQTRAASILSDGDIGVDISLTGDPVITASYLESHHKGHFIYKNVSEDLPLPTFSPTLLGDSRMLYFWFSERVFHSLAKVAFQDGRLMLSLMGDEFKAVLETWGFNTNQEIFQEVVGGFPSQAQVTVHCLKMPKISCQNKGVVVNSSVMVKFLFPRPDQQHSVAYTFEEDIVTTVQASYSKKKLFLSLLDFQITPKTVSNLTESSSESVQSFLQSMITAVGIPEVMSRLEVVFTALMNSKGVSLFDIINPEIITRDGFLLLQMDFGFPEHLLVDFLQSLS

[2] = molecular target: T2, Cholesteryl ester transfer protein (Homo sapiens, UniProt P11597); assay: Inhibition of human cholesteryl ester transfer protein by scintillation proximity assay
T2 sequence (P11597 whole entry): T1 sequence (whole entry)

[3] = Aqueous solubility at pH 2.0; assay type: physicochemical; settings: aqueous medium
[4] = Aqueous solubility at pH 7.4; assay type: physicochemical; settings: aqueous medium
[5] = Half life in human liver microsomes; assay type: ADME, Microsome

Structure (SMILES) | inhibition [1] [%] | other results
CCOc1cccc(C2COc3c(-c4cccc(OC(F)(F)F)c4)cccc3N2CC(O)C(F)(F)F)c1 (mixture of isomers) | 56 | –
O[C@@H](CN1c2cccc(-c3cc(C(F)(F)F)cc(C(F)(F)F)c3)c2OC[C@@H]1c1cccc(OC(F)(F)C(F)F)c1)C(F)(F)F | 59 | –
O[C@@H](CN1c2cccc(-c3cc(F)cc(F)c3)c2OC[C@@H]1c1cccc(OC(F)(F)F)c1)C(F)(F)F | 100 | –
O[C@@H](CN1c2cccc(-c3cc(F)c(F)c(F)c3)c2OC[C@@H]1c1cccc(OC(F)(F)C(F)F)c1)C(F)(F)F | 101 | –
FC(F)C(F)(F)Oc1cccc(C2COc3c(-c4cccc(OC(F)(F)F)c4)cccc3N2CCN2CCOCC2)c1 (racemic) | 0 | –
O[C@@H](CN1c2cccc(-c3cccc(OC(F)(F)F)c3)c2CC[C@@H]1c1cccc(OC(F)(F)C(F)F)c1)C(F)(F)F | – | solubility [3]: < 1 µg/mL; solubility [4]: < 1 µg/mL
CC1(C)OC[C@@H](CN2c3cccc(-c4cccc(OC(F)(F)F)c4)c3OC[C@@H]2c2cccc(OC(F)(F)C(F)F)c2)O1 (mixture of isomers) | 25 | –
OC(CN1c2cccc(-c3cccc(OC(F)(F)F)c3)c2OCC1c1ccccc1)C(F)(F)F (mixture of isomers) | 43 | –
OC(CN1c2cccc(-c3cccc(OC(F)(F)F)c3)c2OCC1c1cccc(Cl)c1)C(F)(F)F (mixture of isomers) | 62 | –

Continued, in another order:

inhibition [1] [%] | Structure (SMILES) | other results
24 | CCN1c2cccc(-c3cccc(OC(F)(F)F)c3)c2OCC1c1cccc(OC(F)(F)C(F)F)c1 (racemic) | –
50 | C[C@H](O)CN1c2cccc(-c3cccc(OC(F)(F)F)c3)c2OC[C@@H]1c1cccc(OC(F)(F)C(F)F)c1 | IC50 [2]: 88 nM
39 | CCCN1c2cccc(-c3cccc(OC(F)(F)F)c3)c2OCC1c1cccc(OC(F)(F)C(F)F)c1 (racemic) | –
29 | CC(C)(O)CN1c2cccc(-c3cccc(OC(F)(F)F)c3)c2OCC1c1cccc(OC(F)(F)C(F)F)c1 (racemic) | –
2 | NCCN1c2cccc(-c3cccc(OC(F)(F)F)c3)c2OCC1c1cccc(OC(F)(F)C(F)F)c1 (racemic) | –
86 | CC(C)C(O)CN1c2cccc(-c3cccc(OC(F)(F)F)c3)c2OCC1c1cccc(OC(F)(F)C(F)F)c1 (mixture of isomers) | IC50 [2]: 129 nM
77 | O[C@H](CF)CN1c2cccc(-c3cccc(OC(F)(F)F)c3)c2OC[C@@H]1c1cccc(OC(F)(F)C(F)F)c1 | half-life [5]: 21 min
96 | OC(CN1c2cccc(-c3cccc(OC(F)(F)F)c3)c2OCC1c1cccc(OC(F)(F)C(F)F)c1)C(F)(F)F (mixture of isomers) | IC50 [2]: 45 nM
9 | CN(C)CCN1c2cccc(-c3cccc(OC(F)(F)F)c3)c2OCC1c1cccc(OC(F)(F)C(F)F)c1 (racemic) | –
79 | OC(CN1c2cccc(-c3cccc(F)c3)c2OCC1c1cccc(OC(F)(F)C(F)F)c1)C(F)(F)F (mixture of isomers) | –
29 | OCCN1c2cccc(-c3cccc(OC(F)(F)F)c3)c2OCC1c1cccc(OC(F)(F)C(F)F)c1 (racemic) | –
27 | OC[C@@H](O)CN1c2cccc(-c3cccc(OC(F)(F)F)c3)c2OC[C@@H]1c1cccc(OC(F)(F)C(F)F)c1 | –
